Laboratory results published in patent publication US11192877B2, “3-(5-hydroxy-1-oxoisoindolin-2-yl)piperidine-2,6-dione derivatives and uses thereof” (Novartis AG, priority 2018, dated 2021).
Where two headings read alike, the source gives them in different places.

Target: IKZF2 (Helios) (Homo sapiens, UniProt Q96SW2+Q9UKS7)
Test: Prolabel quantification of IKZF2 protein levels in 293GT cells
Assay type: cell-based
Settings: 24 h, read-out: IKZF2 % protein reduction at 10 μM, 24 h
[1] = Pro-label assay, 293GT cells, 10 μM

Chain of IKZF2 (Helios) (Q9UKS7 whole entry): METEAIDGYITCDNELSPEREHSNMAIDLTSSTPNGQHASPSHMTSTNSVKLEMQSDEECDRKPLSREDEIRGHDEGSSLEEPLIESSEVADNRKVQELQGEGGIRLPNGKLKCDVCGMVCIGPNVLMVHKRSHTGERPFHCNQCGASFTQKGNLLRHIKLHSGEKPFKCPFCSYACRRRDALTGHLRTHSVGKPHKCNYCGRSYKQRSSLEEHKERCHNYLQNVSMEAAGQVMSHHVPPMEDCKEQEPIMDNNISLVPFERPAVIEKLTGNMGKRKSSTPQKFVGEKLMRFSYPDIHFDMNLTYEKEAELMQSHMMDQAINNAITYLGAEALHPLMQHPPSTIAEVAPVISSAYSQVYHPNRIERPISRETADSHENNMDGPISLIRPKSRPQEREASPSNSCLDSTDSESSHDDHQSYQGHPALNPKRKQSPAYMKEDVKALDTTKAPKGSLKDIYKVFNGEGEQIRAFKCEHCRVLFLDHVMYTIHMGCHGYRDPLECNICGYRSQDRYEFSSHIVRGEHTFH
Chain of IKZF2 (Helios) (Q96SW2 whole entry): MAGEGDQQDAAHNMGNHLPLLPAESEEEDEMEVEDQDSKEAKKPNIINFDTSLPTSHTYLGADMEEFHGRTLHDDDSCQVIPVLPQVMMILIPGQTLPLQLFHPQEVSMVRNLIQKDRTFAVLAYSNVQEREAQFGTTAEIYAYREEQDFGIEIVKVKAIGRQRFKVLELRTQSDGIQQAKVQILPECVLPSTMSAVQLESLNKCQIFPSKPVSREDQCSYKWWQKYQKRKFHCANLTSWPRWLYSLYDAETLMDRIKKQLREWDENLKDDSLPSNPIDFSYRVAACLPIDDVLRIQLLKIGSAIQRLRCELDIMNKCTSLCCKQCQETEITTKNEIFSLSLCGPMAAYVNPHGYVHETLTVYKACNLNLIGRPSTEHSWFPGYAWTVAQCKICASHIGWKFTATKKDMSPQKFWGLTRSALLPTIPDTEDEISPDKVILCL
Chain of IKZF2 (Helios) (Q16531 whole entry partner): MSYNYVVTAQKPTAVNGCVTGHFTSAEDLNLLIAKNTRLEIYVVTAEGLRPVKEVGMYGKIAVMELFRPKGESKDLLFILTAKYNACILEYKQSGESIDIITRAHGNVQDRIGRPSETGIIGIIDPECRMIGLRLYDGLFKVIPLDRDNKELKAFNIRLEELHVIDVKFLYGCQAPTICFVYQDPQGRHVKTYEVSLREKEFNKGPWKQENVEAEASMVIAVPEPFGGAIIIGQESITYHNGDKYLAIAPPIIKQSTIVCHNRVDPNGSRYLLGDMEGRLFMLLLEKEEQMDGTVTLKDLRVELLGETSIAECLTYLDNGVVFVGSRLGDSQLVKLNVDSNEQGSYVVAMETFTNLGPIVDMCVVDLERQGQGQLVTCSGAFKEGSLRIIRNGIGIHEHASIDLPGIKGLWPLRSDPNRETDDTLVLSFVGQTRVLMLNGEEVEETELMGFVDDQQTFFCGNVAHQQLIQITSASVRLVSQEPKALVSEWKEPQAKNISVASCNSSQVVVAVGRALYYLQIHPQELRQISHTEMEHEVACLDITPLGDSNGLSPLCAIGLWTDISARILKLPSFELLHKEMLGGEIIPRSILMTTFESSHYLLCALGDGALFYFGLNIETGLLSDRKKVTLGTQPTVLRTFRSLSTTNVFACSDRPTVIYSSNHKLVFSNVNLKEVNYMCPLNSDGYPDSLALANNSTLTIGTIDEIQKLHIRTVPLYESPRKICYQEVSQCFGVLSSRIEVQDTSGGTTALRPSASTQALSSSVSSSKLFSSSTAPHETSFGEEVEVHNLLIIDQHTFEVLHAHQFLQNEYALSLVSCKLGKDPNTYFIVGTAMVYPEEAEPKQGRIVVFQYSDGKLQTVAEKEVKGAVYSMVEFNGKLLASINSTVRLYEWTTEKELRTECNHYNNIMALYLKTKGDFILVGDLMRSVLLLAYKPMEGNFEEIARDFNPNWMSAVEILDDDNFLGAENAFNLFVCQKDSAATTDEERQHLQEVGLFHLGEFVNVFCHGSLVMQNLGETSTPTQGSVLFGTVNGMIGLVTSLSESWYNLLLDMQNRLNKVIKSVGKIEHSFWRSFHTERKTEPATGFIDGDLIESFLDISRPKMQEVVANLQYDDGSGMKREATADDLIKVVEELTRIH

Row | SMILES | IKZF2 % protein reduction at 10 µM | IKZF2 % protein reduction at 10 µM [1]
1 | N#C[C@H]1CC[C@H](CN[C@H]2CCC[C@@H]2Oc2ccc3c(c2)CN(C2CCC(=O)NC2=O)C3=O)CC1 (stereo partly drawn) [I-160, (1S,4r)-4-((((1S,2S)-2-((2-(2,6-dioxopiperidin-3-yl)-1-oxoisoindolin-5-yl)oxy)cyclopentyl)amino)methyl)cyclohexane-1-carbonitrile] | 75% | –
2 | O=C1CCC(N2Cc3cc(O[C@H]4CCCC[C@@H]4N4CC5(COC5)C4)ccc3C2=O)C(=O)N1 (stereo partly drawn) [I-74, 3-(5-(((1S,2S)-2-(2-oxa-6-azaspiro[3.3]heptan-6-yl)cyclohexyl)oxy)-1-oxoisoindolin-2-yl)piperidine-2,6-dione] | – | 58%
3 | O=C1CCC(N2Cc3cc(O[C@H]4CCC[C@@H]4N4Cc5ccccc5C4)ccc3C2=O)C(=O)N1 (stereo partly drawn) [I-156, 3-(5-(((1S,2S)-2-(isoindolin-2-yl)cyclopentyl)oxy)-1-oxoisoindolin-2-yl)piperidine-2,6-dione] | – | 70%
